# Reference: patent US7803571B2, “Method for identifying IRS inhibitors or agonists” (Sanfoi-Aventis Deutschland GmbH, priority 2003, dated 2010)
# Read-outs that look alike come from different tables or passages of the source. Square brackets hold non-standard residues; d marks the D form. Peptide text beside a SMILES is read from it. pY = N[C@@H](Cc1ccc(OP(=O)(O)O)cc1)C(=O)O; pS = N[C@@H](COP(=O)(O)O)C(=O)O
# Legend:
# [1] = biological target: T1, p85α (Bos taurus, UniProt P23727); assay: Surface plasmon resonance competition assay: binding of 100 nM p85α to immobilized IRS-1 peptides in the presence of competing soluble peptide; parameters: species or system bovine; settings: SPR response at equilibrium 440 s after injection, competitor identical to immobilized peptide
# T1 construct: GST (N, cleaved yes); made in house; host or cells: Escherichia coli BL21
# Experimental: The principle of operation of the BIAcore™ biosensor (Biacore, Freiburg, Germany) has been described previously (42). To avoid the interfering dimerization of the GST part of the fusion protein, it was cleaved with thrombin during the purification. Because of the known extremely fast association rates of SH2-domains to phosphopeptides the relative affinities were assessed by competition assay (43). Therefore, a constant concentration of p85α (100 nM) was incubated in running buffer (0.01 M Hepes pH 7.4, 0.15 M NaCl, 3 mM EDTA, 0.005% Surfactant P20 (HBS-EP)) with a variable concentration of the competitor peptide (50 nM-10 μM), which was identical to that bound on the CM5 sensor chip surface. After a 1 h preincubation at room temperature the various mixtures were then injected sequentially at a flow rate of 5 μl/min at 25° C. in HBS-EP buffer. The used peptides DDGYMPMSPGV (SEQ ID NO: 7), DDGpYMPMSPGV, DDGYMPMpSPGV and DDGpYMPMpSPGV, representing the amino acids 605 to 615 of rat IRS-1, were synthesized on an Applied Biosystems model 433 peptide synthesizer. All peptides were immobilized with a concentration of 5 mg/ml in 100 mM […] (NaOH pH 8.5) at 1 μl/min by standard amine coupling procedure as described by the manufacturer. Regeneration after each binding experiment was performed by injection of 6 M guanidine hydrochloride for 2 min. The kinetic analysis of the p85α with pY608 and […] interaction has been performed using the BIAevaluation 3.1 software (Biacore, Freiburg, Germany) and GraphPad Prism 3.0 (San Diego, Calif., USA).
# The inventors then determined the relative binding affinity of this reaction by monitoring the binding of 100 nM p85α to the peptides pY608 (DDGpYMPMSPGV) and pY608-pS612 (DDGpYMPMpSPGV) in the presence of competing soluble peptides (FIGS. 6D, E, F). Half-maximum inhibitory concentrations (IC50) were obtained by plotting the SPR response 440 s after injection at equilibrium versus the log peptide concentration. […] Solubilized peptides inhibited binding of p85α to the immobilized peptides at micromolar concentrations. […] In order to identify additional PKC-ζ phosphorylation sites on rIRS-1^449-664 that might promote the inhibition of insulin-stimulated tyrosine phosphorylation in the in vitro system, rIRS-1^449-664 was incubated with PKC-ζ and separated by SDS-PAGE. Phosphorylated rIRS-1^449-664 was digested with trypsin and extracted from the gel. The peptides generated by digestion were resolved by two dimensional HPLC and the content of radioactivity in the fractions was monitored by Cerenkov counting. […] To separate comigrating peptides, radioactive fractions of each peak were pooled according to the elution profile and subjected to reversed phase (RP)-HPLC (FIG. 7B). […]
# [2] = biological target: T2, insulin receptor (Rattus norvegicus, UniProt P15127); assay: In vitro phosphorylation assay: tyrosine phosphorylation of rIRS-1^449-664 by insulin receptor; assay type: biochemical
# T2 construct: from tissue; host or cells: rat liver
# Experimental: Rat liver was rapidly removed, immediately frozen in liquid nitrogen and processed as described (41). Briefly, 3.5 vol/wt of an ice-cold buffer consisting of 50 mM Hepes (pH 7.4), 1% Triton X-100 and 2× Complete Protease Inhibitors was added and the liver was homogenized using an Ultraturrax and a Potter-Elvehjem homogenizer, followed by centrifugation at 10,000×g for 10 min at 4° C. The resultant supernatant was slowly stirred at room temperature for 60 min, then again centrifuged at 100,000×g for 90 min at 4° C. The supernatant was then applied to an agarose-bound wheat germ agglutinin (WGA) column. The column was washed with 50 mM Hepes (pH 7.4), 0.1% Triton X-100, and bound glycoproteins were eluted from the WGA column with this buffer containing 0.3 M N-acetylglucoseamine.
# For rIRS-1^449-664 phosphorylation by insulin receptor, […] of the WGA-purified glycoprotein fraction was preincubated for 30 min at 30° C. with 100 nM of insulin in a phosphorylation buffer containing 20 mM Hepes (pH 7.4), 1 mM DTT, 10 mM MgCl2, 100 μg/ml bovine serum albumin, 0.2 mM Na3VO4, 1.7 mM CaCl2, 0.6 mg/ml phosphatidylserine, and 0.5 μg/ml okadaic acid. Autophosphorylation was initiated by the addition of ATP at a concentration of 50 μM and continued for 10 min at 30° C. Substrate phosphorylations were initiated by addition of equal volumes of […] (1 μg) with or without pre-treatment (30 min) by the PKC isoforms in the same buffer in the presence of 50 μM ATP and was allowed to proceed for 10 min at 30° C. in a final volume of 50 μl. The reaction was terminated by the addition of 6× sample buffer (0.35 M Tris-HCl (pH 6.8), 10.28% (w/v) SDS, 36% (v/v) glycerol; 0.6 M DTT, 0.012% (w/v) bromphenol blue) and boiling for 5 min. Proteins were separated by SDS-PAGE and analyzed by immunodetection with an anti-phosphotyrosine antibody after transfer to nitrocellulose. Serine/threonine phosphorylation of rIRS-1^449-664 by different PKC isoforms was assessed by incubating 1 μg rIRS-1^449-664 with 0.5 μg PKC-rb or PKC-ζ in phosphorylation buffer for 30 min at 30° C. in the presence of 50 μM ATP plus 2 μCi [γ-^32P]ATP in a volume of 20 μl. Proteins were resolved by SDS-PAGE and the stained and dried gels were subjected to autoradiography. The extent of phosphate incorporation was determined by Cerenkov counting of excised fragments.
# Proteins were separated by SDS-PAGE using 8-18% gradient gels followed by transfer to nitrocellulose in a semi-dry blotting apparatus. […] All blots were quantified using the Lumilmager software. Significance of reported differences was evaluated by using the null hypothesis and t statistics for unpaired data. […]
# [3] = biological target: T1, p85α; assay: GST pull down assay: interaction of rIRS-1^449-664 with p85α; assay type: binding, bovine; settings: after insulin-stimulated tyrosine phosphorylation by IR
# Experimental: In vitro phosphorylated rIRS-1^449-664 was incubated with glutathione sepharose beads on a rotator for 1 h at 4° C. Pellets were washed three times with binding buffer (50 mM Tris (pH 7.4), 150 mM NaCl, 1% (v/v) Nonidet P-40, 1 mM EDTA, 1 mM NaF, 1 mM Na3VO4). Then 0.5 μg recombinant p85α was added and incubation was continued for 2 h at 4° C. After three times washing, the bound proteins were eluted with 20 μl of 2× sample buffer and separated by SDS-PAGE.
# Proteins were separated by SDS-PAGE using 8-18% gradient gels followed by transfer to nitrocellulose in a semi-dry blotting apparatus. The membrane was then blocked 60 min in Tris-buffered saline containing 0.05% Tween 20 and 1% BSA or 5% non fat dry milk and probed with appropriate antibodies (anti-IRS-1, anti-pTyr, anti-p85α). After extensive washing, the membranes were incubated with horseradish peroxidase-conjugated secondary antibodies, again washed and then the protein bands were visualized by the enhanced chemiluminescence (ECL) method on a Lumilmager workstation (Boehringer, Mannheim, Germany). All blots were quantified using the Lumilmager software. Significance of reported differences was evaluated by using the null hypothesis and t statistics for unpaired data. A p value less than 0.05 was considered to be statistically significant.
# [4] = read-out: IC50, inhibition of p85α binding by soluble peptide, two site competition fit, first value
# [5] = read-out: IC50, inhibition of p85α binding by soluble peptide, two site competition fit, second value
# T1 sequence (P23727 whole entry): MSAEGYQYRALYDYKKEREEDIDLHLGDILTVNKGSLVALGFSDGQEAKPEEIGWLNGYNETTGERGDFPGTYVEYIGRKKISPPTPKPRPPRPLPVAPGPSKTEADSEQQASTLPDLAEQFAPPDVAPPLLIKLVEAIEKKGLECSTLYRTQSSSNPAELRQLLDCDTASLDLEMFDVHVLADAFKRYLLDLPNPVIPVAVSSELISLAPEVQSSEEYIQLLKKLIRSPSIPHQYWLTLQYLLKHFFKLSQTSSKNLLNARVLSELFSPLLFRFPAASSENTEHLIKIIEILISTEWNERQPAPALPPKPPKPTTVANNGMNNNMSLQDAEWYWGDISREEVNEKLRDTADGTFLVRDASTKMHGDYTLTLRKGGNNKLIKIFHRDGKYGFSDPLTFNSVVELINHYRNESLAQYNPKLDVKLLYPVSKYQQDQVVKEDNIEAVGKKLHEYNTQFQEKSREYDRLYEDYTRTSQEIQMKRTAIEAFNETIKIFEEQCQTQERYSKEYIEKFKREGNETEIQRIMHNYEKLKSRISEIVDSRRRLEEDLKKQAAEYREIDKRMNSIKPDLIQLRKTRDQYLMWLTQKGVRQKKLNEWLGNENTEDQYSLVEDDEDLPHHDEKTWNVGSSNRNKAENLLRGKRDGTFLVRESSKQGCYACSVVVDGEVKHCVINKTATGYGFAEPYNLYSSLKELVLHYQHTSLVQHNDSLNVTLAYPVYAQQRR
# T2 sequence (P15127 27-759 limits assumed): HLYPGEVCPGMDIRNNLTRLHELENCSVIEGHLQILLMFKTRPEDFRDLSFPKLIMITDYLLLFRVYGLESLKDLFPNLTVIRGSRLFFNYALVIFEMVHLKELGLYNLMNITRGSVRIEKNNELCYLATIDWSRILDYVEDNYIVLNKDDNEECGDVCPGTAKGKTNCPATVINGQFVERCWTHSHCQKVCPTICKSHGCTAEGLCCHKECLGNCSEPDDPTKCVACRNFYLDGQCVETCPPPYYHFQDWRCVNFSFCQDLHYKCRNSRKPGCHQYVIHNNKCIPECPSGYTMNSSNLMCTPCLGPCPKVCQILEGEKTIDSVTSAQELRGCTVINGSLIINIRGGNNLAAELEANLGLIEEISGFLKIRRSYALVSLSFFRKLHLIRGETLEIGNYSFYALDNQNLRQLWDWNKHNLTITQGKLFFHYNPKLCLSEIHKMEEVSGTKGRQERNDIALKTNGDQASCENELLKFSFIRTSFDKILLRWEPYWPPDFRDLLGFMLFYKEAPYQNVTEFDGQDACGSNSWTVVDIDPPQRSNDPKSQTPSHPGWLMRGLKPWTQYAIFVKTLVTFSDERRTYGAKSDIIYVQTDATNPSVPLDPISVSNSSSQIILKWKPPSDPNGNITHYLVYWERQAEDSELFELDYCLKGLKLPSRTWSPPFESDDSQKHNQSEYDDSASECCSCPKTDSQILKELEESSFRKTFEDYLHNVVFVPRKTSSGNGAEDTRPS
"IC50 [1, 4]","IC50 [1, 5]","Insulin-stimulated tyrosine phosphorylation, stimulation over basal ([2]; WGA-purified insulin receptor, 100 nM insulin, n=10)","Reduction of tyrosine phosphorylation by IR after PKC-ζ pretreatment ([2]; wild type and mutant fusion proteins as substrate, relative to insulin-stimulated control)",Interaction of p85α with the tyrosine phosphorylated fusion protein [3],Molecule
150 nM,2880 nM,–,–,–,"CSCC[C@H](NC(=O)[C@@H]1CCCN1C(=O)[C@H](CCSC)NC(=O)[C@H](Cc1ccc(OP(=O)(O)O)cc1)NC(=O)CNC(=O)[C@H](CC(=O)O)NC(=O)[C@@H](N)CC(=O)O)C(=O)N[C@@H](COP(=O)(O)O)C(=O)N1CCC[C@H]1C(=O)NCC(=O)N[C@H](C(=O)O)C(C)C [pY608-pS612, DDGpYMPMpSPGV] (H-DDG[pY]MPM[pS]PGV-OH)"
260 nM,16600 nM,–,–,–,"CSCC[C@H](NC(=O)[C@@H]1CCCN1C(=O)[C@H](CCSC)NC(=O)[C@H](Cc1ccc(OP(=O)(O)O)cc1)NC(=O)CNC(=O)[C@H](CC(=O)O)NC(=O)[C@@H](N)CC(=O)O)C(=O)N[C@@H](CO)C(=O)N1CCC[C@H]1C(=O)NCC(=O)N[C@H](C(=O)O)C(C)C [pY608, DDGpYMPMSPGV] (H-DDG[pY]MPMSPGV-OH; N-terminus and C-terminus assumed)"
–,–,8.8±1.1 fold,30-40%,significant increase,"rIRS-1^449-664: glutathione S-transferase (GST) fusion protein containing the amino acids 449-664 of rat IRS-1 (SEQ ID NO: 17) (protein, left off: a dimerising Fc or GST) PPARGEEELSNYICMGGKGASTLTAPNGHYILSRGGNGHRYIPGATMGTSPALTGDEAAGAADLDNRFRKRTHSAGTSPTISHQKTPSQSSVVSIEEYTEMMPAAYPPGGGSGGRLPGYRHSAFVPTHSYPEEGLEMHHLERRGGHHRPDSSNLHTDDGYMPMSPGVAPVPSNRKGNGDYMPMSPKSVSAPQQIINPIRRHPQRVDPNGYMMMSPS"
